{
  "source": "paper PMC13181001",
  "about": "(Communications Medicine, 2026)",
  "key": {"[1]": {"test_system": "Ba/F3 cell EGFR (L858R/T790M/C797S)", "assay": "Ba/F3-EGFR cell viability assay (CellTiter-Glo)", "format": "cell-based, murine", "conditions": "Mus musculus, BaF3, Mean", "protocol": "(§1) Human full-length EGFR harboring a particular mutation or wild-type EGFR was cloned into the PB-CMV-MCS-EF1-RFP-T2A-Puro PiggyBac vector (System Biosciences) to construct the EGFR PiggyBac vector plasmids. Each EGFR PiggyBac plasmid was simultaneously transfected into Ba/F3 cells with Super PiggyBac Transposase Expression Vector (System Biosciences) using a Nucleofector (Lonza). Afterward, the cells were treated with puromycin to select the cells which were stably integrated EGFR.\n(§2) In Ba/F3-EGFR (wild-type) cells, hEGF (FUJIFILM Wako Pure Chemical Corporation) was added at a final concentration of 50 ng/mL. […] The cells were treated with appropriately diluted test compounds in DMSO and incubated for 3 days. Cell viability was analyzed using CellTiter-Glo 2.0 (Promega), according to the manufacturer’s protocol. The IC50 values were calculated by nonlinear regression analysis using XLfit."}, "[2]": {"assay": "Body weight evaluation in allograft and xenograft mouse models", "format": "in vivo", "conditions": "once-daily oral administration; NIH/3T3-EGFR allograft models (Fig. 5a–d)", "protocol": "The tumor volumes were calculated using the following equation: Tumor Volume (mm^3) = 0.5 × major axis (mm) × minor axis (mm) × minor axis (mm). […] Tukey’s test (SAS with EXSUS) was used to evaluate statistical significance (p ≥ 0.05) on the logarithmically transformed mean tumor volume in each allocated group on Days 0 or 1, and no statistical significance was confirmed before initiating the experiments. During the experiments, the mice in each labeled cage were identified by the position of the cut on their pinnae. The test compounds were administered orally at a dose of 10 mL/kg. The tumor volume and body weight of each mouse were measured once every 2–5 days. The application of the humane endpoints was determined primarily based on tumor volume, body weight change, and systemic physical condition. For Pharmacodynamics Marker (PD) analysis, the mice were randomized into groups based on tumor volume when the average tumor volume reached approximately 400–600 mm^3, following the previously described procedure, including the identification of individual mice. […] Tumor samples were excised and placed in homogenate tubes, frozen in liquid nitrogen, and stored in an ultra-low temperature freezer set at −80 °C until use.\nBased on the predefined humane endpoint criteria for this study, †each animal in vehicle control and\nunder anesthesia on day 8. […]"}, "[3]": {"test_system": "EGFR harboring L718Q and L718V", "assay": "Inhibitory spectrum against other osimertinib-resistant mutations (author rebuttal)", "conditions": "data not shown"}, "[4]": {"test_system": "pEGFR, pAkt, pErk1/2 in NCI-H1975 xenograft tumors", "assay": "Pharmacodynamic marker analysis (immunoblotting) in NCI-H1975 xenograft tumors", "format": "in vivo, mouse", "conditions": "for phosphorylation of EGFR, Akt, and Erk1/2 in tumor: 24 h", "method": "Frozen tumor samples were homogenized in cold RIPA buffer (Thermo Fisher Scientific) supplemented with PhosSTOP (Merck KGaA) and cOmplete, Mini, EDTA-free Protease Inhibitor Cocktail (Merck KGaA) using Multi-beads Shocker (Yasui Kikai Corporation). The tumor protein extracts obtained via centrifugation of the supernatants were stored on ice until the assay. The protein concentration of the extracts was determined using BCA Protein Assay (Thermo Fisher Scientific), according to the manufacturer’s protocol. The protein concentration of the extracts was adjusted to 1 mg/mL using RIPA buffer and Lane Marker Reducing Sample Buffer (Thermo Fisher Scientific) to prepare SDS-PAGE samples; afterward, the samples were denatured by heating at 98 °C for 5 min. After cooling to room temperature, the extracts and samples were frozen until SDS-PAGE analysis. 5 μg/lane of each SDS-PAGE sample was subjected to SDS-PAGE analysis using 7.5% polyacrylamide gels (Bio-Rad Laboratories) and transferred to polyvinylidene difluoride (PVDF) membranes using a Trans-Blot Turbo Transfer System (Bio-Rad Laboratories). Membranes were blocked with the PVDF Blocking Reagent for Can Get Signal (TOYOBO). After blotting with primary antibodies, the membranes were incubated with horseradish peroxidase (HRP)-conjugated secondary antibodies. The antibodies were diluted in Can Get Signal Solution1/2 (TOYOBO) according to the manufacturer’s protocol. […] All antibodies were diluted to a concentration of 1:1000."}, "[5]": {"test_system": "NIH/3T3-EGFR (ex19del/T790M/C797S)-luc cells", "assay": "Intracranial tumor transplanted mouse allograft model", "format": "in vivo", "conditions": "20 and 40 mg/kg; with statistical significance", "protocol": "Male nude mice (BALB/cAJcl-nu/nu, 6 weeks old, microbiological grade: Specific pathogen free, CLEA Japan) were each head-fixed under anesthesia with a stereotaxic apparatus, and 2 μL of the cell suspension was injected at 0.5 mm anterior, 2.0 mm right, and 3.5 mm deep from the bregma, whereby 1.0 × 10^4 cells per mouse were transplanted. The mice were anesthetized with an intraperitoneal injection of the MMB mixed agent, a saline with 0.075 mg/mL medetomidine hydrochloride (Nippon Zenyaku Kogyo CO., Ltd.), 0.4 mg/mL midazolam (Fuji Pharma Co., Ltd.), and 0.5 mg/mL butorphanol tartrate (Meiji Seika Pharma Co., Ltd.), at a volume of 10 mL/kg body weight. Propeto (Maruishi Pharmaceutical Co., Ltd.) was applied to the eyeballs to prevent drying during the transplantation. The day of cell transplantation was defined as day 0. 150 mg/kg Luciferin (Promega Corporation) was intraperitoneally administered to measure the level of luminescence (photons/s) using an IVIS Lumina II Imaging System (PerkinElmer) on days 8, 13, and 19. Mice were anesthetized with isoflurane and placed in the prone position in the IVIS Lumina II Imaging System chamber. […] The total flux in the region of interest of the head was calculated using Living Image software (version 3.2.0.7800). […] The application of the humane endpoints was determined primarily based on body weight change, behavior, and systemic physical condition. […]"}, "[6]": {"biological_target": "human recombinant EGFR Ex19del/T790M/C797S (Homo sapiens, UniProt P00533, C797S/DEL746-750/T790M)", "assay": "EGFR biochemical kinetics assay (PhosphoSens Kinase Assay), Ki"}, "[7]": {"test_system": "Ba/F3 cell EGFR (ex19del)", "assay": "Ba/F3-EGFR cell viability assay (CellTiter-Glo)", "format": "cell-based, murine", "conditions": "Mus musculus, BaF3, Mean", "protocol": "as §1, §2"}, "[8]": {"biological_target": "recombinant wild-type and mutated EGFR", "assay": "Off-chip mobility shift assay (MSA) at ATP concentrations near Km", "format": "biochemical, human", "conditions": "ATP concentrations near the Km values for ATP in each recombinant EGFR", "method": "The reaction mixtures and test compounds dissolved in dimethylsulfoxide (DMSO) were mixed and incubated for 1 hour at room temperature. The reaction was terminated by adding the Termination Buffer of QuickScout Screening Assist MSA (Carna Biosciences). The reaction mixture was applied to a LabChip system (PerkinElmer), and the product (P) and substrate (S) peptide peaks were separated and quantified. The kinase reaction was evaluated by calculating the product ratio from the peak heights of the P and S peptides (P/(P + S)). […] IC50 values were calculated from the concentration vs %inhibition curves by fitting to a four-parameter logistic curve using Microsoft Excel 2013 with the Solver add-in software.\nSupplementary Fig 1. Chemical structure of EGFR-TKIs in the series of pyrrolopyrimidine-quinoline chemical core structure. The chemical structures of TAS3351 (a), TAS3351 analog, […]\nthe pyrrolopyrimidine-quinoline chemical core structure. Red-highlighted parts of the chemical structures indicate the pyrrolopyrimidine-quinoline. […]\ninhibition was measured via Off-chip Mobility Shift Assay (MSA) using recombinant wild-type and mutated EGFR in the ATP concentration relevant to Km values of each human recombinant EGFR. ATP concentrations in the assay in each recombinant EGFR are as follows: wild type, ex19del/T790M, and […]\nindicate standard deviation (s.d.) from triplicates. […]"}, "[9]": {"biological_target": "human recombinant EGFR Ex19del (Homo sapiens, UniProt P00533, DEL746-750)", "assay": "EGFR biochemical kinetics assay (PhosphoSens Kinase Assay), Ki"}, "[10]": {"test_system": "A-431 (wild-type) xenograft", "format": "in vivo, mouse", "conditions": "at least at doses below 50 mg/kg; once-daily oral", "protocol": "The tumor volumes were calculated using the following equation: Tumor Volume (mm^3) = 0.5 × major axis (mm) × minor axis (mm) × minor axis (mm). […] Tukey’s test (SAS with EXSUS) was used to evaluate statistical significance (p ≥ 0.05) on the logarithmically transformed mean tumor volume in each allocated group on Days 0 or 1, and no statistical significance was confirmed before initiating the experiments. During the experiments, the mice in each labeled cage were identified by the position of the cut on their pinnae. The test compounds were administered orally at a dose of 10 mL/kg. The tumor volume and body weight of each mouse were measured once every 2–5 days. The application of the humane endpoints was determined primarily based on tumor volume, body weight change, and systemic physical condition. […]\nThe statistical analyses were performed with SAS (SAS Institute Inc., ver. 9.4) in an EXSUS (EPS Corporation, ver. 10.0.3) environment. In the studies of subcutaneous tumor-transplant mouse models, the difference in mean tumor volume between each treated group and the control group was analyzed using Dunnett’s test. In the study of intracranial tumor transplanted mouse models, the difference of the mean logarithmically transformed total flux of each treated group with that of the control group was evaluated with Dunnett’s test."}, "[11]": {"biological_target": "human recombinant EGFR L858R/T790M (Homo sapiens, UniProt P00533, L858R/T790M)", "assay": "EGFR biochemical kinetics assay (PhosphoSens Kinase Assay), Ki"}, "[12]": {"biological_target": "human recombinant EGFR L858R (Homo sapiens, UniProt P00533, L858R)", "assay": "EGFR biochemical kinetics assay (PhosphoSens Kinase Assay), Ki"}, "[13]": {"biological_target": "human recombinant EGFR Ex19del/T790M (Homo sapiens, UniProt P00533, DEL746-750/T790M)", "assay": "EGFR biochemical kinetics assay (PhosphoSens Kinase Assay), Ki"}, "[14]": {"test_system": "255 kinases", "assay": "Kinome-wide selectivity, Off-chip Mobility Shift Assay", "format": "biochemical", "conditions": "20 nmol/L", "method": "However, the potential secondary effects of the pharmacological inhibition of these eight kinases, with IC50 values below that of the wild-type EGFR, remain to be elucidated.\nSupplementary Fig 3. […] The […]\nplasmon resonance (SPR) analysis with single-cycle kinetics. KD values were calculated via curve fitting with 1:1 binding model or steady-state affinity evaluation. Mean KD values and standard deviation (s.d.) obtained from three independent experiments are shown.\nSupplementary Fig 4. Kinome-wide selectivity of TAS3351. […]\ndetermination of the IC50 values. […]"}, "[15]": {"test_system": "P-gp and BCRP in Caco-2 cells"}, "[16]": {"assay": "Assessment of brain penetrability in mice (plasma and brain PK)", "format": "in vivo", "conditions": "BALB/cAJcl-nu/nu, mouse; for AUC(0-t): plasma, male nude mice, read-out: AUC0-24 hr Plasma; for Kp uu / Kp: male, oral; for Kp uu: brain, unbound brain AUC / unbound plasma AUC; for Kp: brain AUC0-24 hr / plasma AUC0-24 hr", "protocol": "Prior to the study, the animal use protocol was reviewed and approved by the Institutional Animal Care and Use Committee in Sekisui Medical Co., Ltd., and the study was conducted in accordance with the regulations and guidelines of animal experiments specified by the Testing Facility in Sekisui Medical Co., Ltd. On the day of administration, the mice were assigned to groups by the stratification body weight average method. […] After centrifugation of the blood samples, the collected plasma samples were stored in an ultra-low-temperature freezer until the analysis. At the same time, the brain samples also collected, weighed, and mixed with PBS at ratio of 1:3 (w/v). After adding zirconia beads to the container, the brain samples were homogenized with Shake Master Auto (Biomedical Science) for 3 min to prepare the brain homogenate. The homogenate samples were stored in an ultra-low-temperature freezer until the analysis. […] The areas under the concentration-time curve from 0 to 24 h (AUC0-24 hr) of plasma and brain were calculated from mean concentration values using Phoenix WinNonlin 8.1 (Certara). Kp,brain was determined by dividing the total brain AUC0-24 hr by the total plasma AUC0-24 hr. Kp,uu,brain was determined by dividing the unbound brain AUC0-24 hr by the unbound plasma AUC0-24 hr, and the unbound AUC0-24 hr was determined by multiplying the total AUC0-24 hr by the respective tissue unbound fraction."}},
  "note": "Where two headings read alike, the source gives them in different places.",
  "data": [
    {"smiles": "C#Cc1c(-c2cnc3ccccc3c2)c2c(N)ncnc2n1C12CCC(NC(=O)c3cnc(C)cn3)(CC1)C2", "note": "[TAS3351]", "values": [
      {"measurement": "IC50", "setting": "[1]", "value": 241, "unit": "nM"},
      {"measurement": "body weight", "setting": "[2]", "value": "without apparent body weight loss"},
      {"measurement": "efficacy against EGFR harboring L718Q and L718V", "setting": "[3]", "value": "not effective"},
      {"measurement": "phosphorylation of EGFR, Akt, and Erk1/2 in tumor", "setting": "[4]; 40 mg/kg single oral", "value": "restored to nearly baseline"},
      {"measurement": "phosphorylation of EGFR, Akt, and Erk1/2 in tumor", "setting": "[4]; 80 mg/kg single oral", "value": "partially inhibited"},
      {"measurement": "phosphorylation of EGFR, Akt, and Erk1/2 in tumor vs control", "setting": "[4]; 40 and 80 mg/kg single oral, 1–8 h post-administration", "value": "significantly reduced"},
      {"measurement": "intracranial luciferase activity (total flux) vs vehicle", "setting": "[5]", "value": "reduced intracranial luciferase activity"},
      {"measurement": "Ki", "setting": "[6]", "value": 0.018, "unit": "nM"},
      {"measurement": "IC50", "setting": "[7]", "value": 2.84, "unit": "nM"},
      {"measurement": "IC50 values", "setting": "[8]", "value": "sub-nanomolar range"},
      {"measurement": "Ki", "setting": "[9]", "value": 0.0048, "unit": "nM"},
      {"measurement": "inhibition of xenograft growth", "setting": "[10]", "value": "did not demonstrate statistically significant inhibition of xenograft growth"},
      {"measurement": "Ki", "setting": "[11]", "value": 0.224, "unit": "nM"},
      {"measurement": "Ki", "setting": "[12]", "value": 0.259, "unit": "nM"},
      {"measurement": "difference in the Ki values between ex19del and L858R mutations", "setting": "[12]; L858R vs ex19del", "value": "over 50 fold"},
      {"measurement": "Ki", "setting": "[13]", "value": 0.00649, "unit": "nM"},
      {"measurement": "number of kinases whose enzymatic activity was inhibited by over 50%", "setting": "[14]", "value": 26},
      {"measurement": "P-gp or BCRP substrate", "setting": "[15]", "value": "not a P-gp or BCRP substrate"},
      {"measurement": "AUC(0-t)", "setting": "[16]; 20 mg/kg single oral", "value": 72.5, "unit": "µM·h"},
      {"measurement": "AUC(0-t)", "setting": "[16]; 40 mg/kg single oral", "value": 202, "unit": "µM·h"},
      {"measurement": "AUC(0-t)", "setting": "[16]; 80 mg/kg single oral", "value": 377, "unit": "µM·h"},
      {"measurement": "Kp uu", "setting": "[16]; 20 mg/kg", "value": 0.68},
      {"measurement": "Kp uu", "setting": "[16]; 40 mg/kg", "value": 1.08},
      {"measurement": "Kp uu", "setting": "[16]; 80 mg/kg", "value": 1.47},
      {"measurement": "Kp", "setting": "[16]; 20 mg/kg", "value": 0.32},
      {"measurement": "Kp", "setting": "[16]; 40 mg/kg", "value": 0.51},
      {"measurement": "Kp", "setting": "[16]; 80 mg/kg", "value": 0.69}
    ]}
  ]
}
